Experimental data as given in US11236077B2, “Fruquintinib eutectic crystal, preparation method therefor, composition, and uses thereof” (Hangzhou SoliPharma Co., Ltd., priority 2018, dated 2022).
Converted amounts (≈) assume the structure as drawn.

Key:
Format in all cases: physicochemical
Solubility in water [1] = conditions: for Solubility in Water / solubility at 1 min: 10 mg in 10 ml deionized water, ultrasound 1 min, filtration, HPLC; for Solubility in Water: 25° C.; for solubility in 25° C. water compared with known fruquintinib Form I: Comparative Example 1, result in words; for solubility at 1 min: deionized water, 25 °C, water, thermodynamic from solid
Experimental: High performance liquid chromatography (HPLC) data were collected on Ultimate 3000 and the concentration was tested with the external standard method. […] The specific operation steps: respectively took 10 mg of each of the above samples and put them into a 20 ml glass bottle respectively, added 10 ml deionized water, placed the solution at 25° C. ultrasound for 1 min, then took the samples for filtration and analyzed their concentrations using HPLC; calculated their solubility in water respectively.

[2] = Crystal slurry experiment in water (crystalline form stability); conditions: Comparative Example 2, result in words
Experimental: X-ray powder diffraction (XRPD): performed on Bruker D8 Advance diffractometer. Samples were tested at room temperature. Testing conditions: 2θ scan range 3 to 40°, step size 0.02° and speed 0.2 s/step. […] The specific operation steps: respectively took 10 mg of each of the above samples and put them into a 5 ml glass bottle respectively, added 2 ml deionized water, stirred the solution at room temperature for 24 hours, then took the samples for filtration; and analyzed their crystalline forms with XRD.

[3] = Storage stability in desiccators at room temperature and RH 10% to 90%; conditions: room temperature, 4 months
Solubility in water [4] = conditions: background statement, conditions not given

Row | Structure (SMILES) | Solubility in Water (Solubility in water [1]; listed as Crystalline Form of Compound A of the present invention) | solubility in 25° C. water compared with known fruquintinib Form I (Solubility in water [1]) | crystalline form after having been stirred in water for 24 hours [2] | appearance, XRPD and melting point after storage [3] | solubility at 1 min (Solubility in water [1]) | Solubility in Water (Solubility in water [1]) | solubility in water (inventors' finding) (Solubility in water [4])
1 | CNC(=O)c1c(C)oc2cc(Oc3ncnc4cc(OC)c(OC)cc34)ccc12 [Compound A] | 9.9 µg/mL (≈ 25.2 µM) | higher | kept its form unchanged | unchanged | – | – | –
2 | CNC(=O)c1c(C)oc2cc(Oc3ncnc4cc(OC)c(OC)cc34)ccc12.O=C(O)/C=C\C(=O)O | – | higher | kept its form unchanged | unchanged | 9.4 µg/mL | – | –
3 | CNC(=O)c1c(C)oc2cc(Oc3ncnc4cc(OC)c(OC)cc34)ccc12 [Known fruquintinib Crystalline Form VII, 6-(6,7-dimethoxyquinazoline-4-oxy)-N,2-dimethyl benzofuran-3-formamide, reference compound] | – | – | – | – | – | 2.6 µg/mL (≈ 6.61 µM) | –
4 | CNC(=O)c1c(C)oc2cc(Oc3ncnc4cc(OC)c(OC)cc34)ccc12 [Known fruquintinib Crystalline Form III, 6-(6,7-dimethoxyquinazoline-4-oxy)-N,2-dimethyl benzofuran-3-formamide, reference compound] | – | – | – | – | – | 2.1 µg/mL (≈ 5.34 µM) | –

The remaining lines, values ahead:

Row | Solubility in Water (Solubility in water [1]; listed as Crystalline Form of Compound A of the present invention) | solubility in 25° C. water compared with known fruquintinib Form I (Solubility in water [1]) | crystalline form after having been stirred in water for 24 hours [2] | appearance, XRPD and melting point after storage [3] | solubility at 1 min (Solubility in water [1]) | Solubility in Water (Solubility in water [1]) | solubility in water (inventors' finding) (Solubility in water [4]) | Structure (SMILES)
5 | – | higher | kept its form unchanged | unchanged | 12 µg/mL | – | – | CNC(=O)c1c(C)oc2cc(Oc3ncnc4cc(OC)c(OC)cc34)ccc12.O=C(O)CC(=O)O
6 | – | – | – | – | – | 2.2 µg/mL (≈ 5.59 µM) | poor | CNC(=O)c1c(C)oc2cc(Oc3ncnc4cc(OC)c(OC)cc34)ccc12 [Known fruquintinib Crystalline Form I, 6-(6,7-dimethoxyquinazoline-4-oxy)-N,2-dimethyl benzofuran-3-formamide, reference compound]
